Data reported in patent publication US20230129935A1, “SYSTEM, PRODUCT AND METHOD FOR MAINTAINING THE VAGINAL MICROBIOME” (VAGINAL BIOME SCIENCE, INC., priority 2021, published 2023).

What was measured:
[1] = tested on: herpes simplex virus (HSV-2); conditions: after a single exposure; cited from earlier work
HIV = assay: Killing of HIV and other pathogens by lubricant acidified with lactic acid; conditions: vaginal lubricant including substantially racemic lactic acid, matched to vaginal acidity

Row | Compound | susceptibility to herpes simplex virus (HSV-2) [1] | killing of HIV and many other pathogens (HIV)
1 | polyethylene glycol [polyethylene glycol (PEG-8)] | markedly increased susceptibility | 
2 | CC(O)C(=O)O (racemic) [lactic acid] |  | kills HIV and many other pathogens
